Entries after “also recorded” stand apart in the source; their conditions may differ.
Key:
[1] = tested on: Influenza hemaglutinin; set-up: species or system Balb/c mice; conditions: mouse; for HA-specific IgG, secondary response following boost / HA-specific IgG, primary response: in vivo; for HA-specific IgG, primary response: ip
[2] = tested on: Influenza hemaglutinin-specific T cell response; set-up: species or system Balb/c mice; conditions: mouse, in vivo, ip
[3] = tested on: Total T cells, CD4+ T cells and CD8+ T cells; experiment: Proliferation of purified human T cells (total, CD4+, CD8+); assay type: cell-based
Procedure: (§1) Human lymphocytes were stimulated for 3 days in 96 U-bottom well plates with various concentrations of recombinant fusion proteins. In some experiments, a NF-κB inhibitor (SN50, 18 μM, Calbiochem, San Diego, Calif., USA) and a MEK1/2 inhibitor (PD98059, 1 μg/ml, Calbiochem) were added to the cell culture media. Cell proliferation was assessed by thymidine uptake assays. Cultured cells were pulsed with 1 μCi/well of [^3H]thymidine (ICN, Costa Mesa, Calif., USA) for 18 hours and then harvested onto glass fiber filters. [^3H]thymidine incorporation was measured by standard liquid scintillation counting techniques. In some experiments, HA antigen-specific cell proliferation response was assayed by the MTT assay [van de Loosdrecht et al., J. Immunol. Methods, 174:311(1994)], which is a direct measure of cell viability.
PBMCs derived from normal healthy human adults were separated from whole blood using Ficoll-Paque Plus. Peripheral blood lymphocyte (PBL)-T cells, PBL-B cells, CD4^+ T cells, CD8^+ T cells were purified by negative selection using RosetteSep (StemCell Tec. Vancouver, BC, Canada), while non-T cells were purified by negative selection using pan-T magnet beads (M-450, Dynal, Lake Success, N.Y., USA). The purity of human PBL-T cells was greater than 97% as determined by CD3 staining and flow cytometry. […] CD4^+ and CD8^+ T cells were purified to greater than 90% positive for CD4 and CD8, respectively as determined by flow cytometry studies.
Total T cells, CD4^+ T cells and CD8^+ T cells were stimulated with either B7-2-FasL-IgFc or control fusion proteins. CD4^+ T cells and CD8^+ T cells were stimulated with various fusion proteins. After 72 hours in culture, cell proliferation was assessed. Data indicates the average and standard deviation of quadruplicate samples. The data represent the three experiments with similar results.

[4] = tested on: T-bet; experiment: T-bet RNA in CD4+ T cells by RT-PCR; assay type: cell-based, human; conditions: 5 days
Procedure: (§2) Using specific primers, PRDI-BF1 RNA was amplified by RT-PCR (20 cycles) from cytoplasmic RNA derived from PBL cells stimulated for three days with fusion proteins (0.1 μM). T-bet and GATA3 RNAs were amplified by RT-PCR (25 cycles) from cytoplasmic RNA derived from CD4^+ T cells stimulated for five days with fusion proteins (0.1 μM). Each sample was subjected to electrophoresis on agarose gels and stained with ethidium bromide (EtBr) to detect amplified fragments: 594 bp for PRDI-BF1, 206 bp for T-bet and 131 bp for GATA3.
CD4^+ T cells were stimulated by B7-2-FasL-IgFc (0.1 μM) for 5 days before total RNA was harvested and tested for increased mRNA expression of T-bet (for Th1 differentiation) and GATA-3 (for Th2 differentiation) by RT-PCR. Each sample was electrophoresed on agarose gels and stained with ethidium bromide (EtBr) to detect amplified fragments: 206 bp for T-bet and 131 bp for GATA3. The data represent the three experiments with similar results.

[5] = tested on: IL-2; experiment: IL-2 production of T cells (ELISA); assay type: cell-based, human; conditions: 1 μg/ml, 3 days
Procedure: (§3) The relative concentrations of TNP-specific human IgG and IgM in supernatants from 4 day cultures were determined by ELISA assays. TNP22-BSA (1 μg/ml) was used to coat assay plates, and alkaline phosphatase-conjugated anti-human IgG (Fab-specific) (Sigma) or anti-human IgM (μ-chain-specific) (Sigma) were used as the detection reagents. The concentration of IL-2 in fusion protein-stimulated culture supernatants was measured by human-IL-2-specific ELISA kit (Roche, Laval, QC, Canada). The lower limit of detection was 30 pg/ml in IL-2 assay.
T cells were stimulated by B7-2-FasL-IgFc (1 μg/ml) or phytohemagglutinin (5 μg/ml) for 3 days. The concentration of IL-2 in culture supernatants was measured by ELISA assays. The lower limit of detection was 30 pg/ml in IL-2 assay. The data represent the three experiments with similar results.

[6] = tested on: human Fas-apoptosis-sensitive Jurkat T cell line or human peripheral blood T lymphocytes; experiment: Cell death in Jurkat T cell line or peripheral blood T lymphocytes; assay type: cell-based
Text: According to understanding, the strong cell activation by simultaneous stimulation of a co-stimulation receptor and another death receptor is not a predictable outcome. […] A possible explanation for the strong activation in CD28^+/Fas^+ T cells is that B7-2 and FasL must be located in the close proximity to each other, as is the case when linked together in the B7-2-FasL-IgFc fusion protein.

[7] = tested on: PBL-T cells and PBL-non-T cells; experiment: Proliferation of PBL-T cells versus PBL-non-T cells; assay type: cell-based, human; conditions: 0.1 μM, 3 days
Procedure: as §1
PBL-T cells and PBL-non-T cells were stimulated with CD40L-FasL-IgFc (0.1 μM) for three days prior to proliferation assay. […] The data represent the three experiments with similar results. […]
PBMCs derived from normal healthy human adults were separated from whole blood using Ficoll-Paque Plus. […] The purity of human PBL-T cells was greater than 97% as determined by CD3 staining and flow cytometry. […] CD4^+ and CD8^+ T cells were purified to greater than 90% positive for CD4 and CD8, respectively as determined by flow cytometry studies.

[8] = tested on: human B lymphoma cells (Raji, Daudi); experiment: Cell death of human B lymphoma cells after treatment; assay type: cell-based; conditions: Raji and Daudi cells
[9] = tested on: PRDI-BF1; experiment: PRDI-BF1 RNA by RT-PCR; assay type: cell-based, human; conditions: 0.1 μM, 3 days
Procedure: as §2
PBMCs were stimulated with fusion proteins (0.1 μM) for three days. The total RNA was assayed for the message of PRDI-BF1 by RT-PCR. Each sample was electrophoresed on agarose gels and stained with ethidium bromide (EtBr) to detect amplified fragments. The data represent the results from three experiments with similar results.

[10] = tested on: PBL-B cells; experiment: TNP-specific IgG/IgM secretion ELISA; assay type: cell-based, human; conditions: 4 days culture, supernatant ELISA
Procedure: as §3
We next assessed the effect on IgG secretion by fusion protein-induced co-clustering of CD40 and Fas in B cells. PBL-B cells were incubated with CD40L-FasL-IgFc for four days and the supernatants were assayed for IgG- and IgM-specific trinitrophenyl (TNP) hapten [Galanaud et al., Cell. Immunol., 106:234 (1987)].
PBMCs were stimulated with fusion proteins for four days. The relative concentrations of TNP-specific human IgG and IgM in supernatants were determined by ELISA assays. […] The data represent the three experiments with similar results.

[11] = tested on: OVA; experiment: Anti-OVA IgG response in immunized mice (ELISA titer); assay type: in vivo, Balb/c mice
Procedure: Balb/c mice (4-6 wks of age) were primed intra peritoneal (i.p.) route with 0.1 ml of protein antigens, OVA albumin (Sigma) or GSK […] (GlaxoSmithKline, Mississauga, Ontario, Canada), in the presence and absence of fusion protein or cDNA harboring plasmid. To determine the antigen-specific IgG titer in the serum of the individual mouse, ELISA were performed using 0.1 μg/ml antigen-coated assay plates (Maxisorp, Nunc 44-2404-21) following the standard procedure.
Balb/c mice were immunized i.p. with 0.2 μg of OVA and 5 μg of CD40L-FasL-IgFc (indicated as Primed). On Day 14, blood samples were harvested and subsequently mice were injected with 0.2 μg of OVA (indicated as Boosted). Sera from day 14 and day 21 were analysed by ELISA for the IgG activity against OVA. […] Squares indicate mice immunized with OVA alone. Circles indicate mice immunized with both OVA and CD40L-FasL-IgFc. Numbers in squares and circles indicate individual mouse. The […] activity of pre-immune serum from each mouse was equally low at less than 50 in titer.

[12] = tested on: B cell (CD19+) and monocyte (CD14+) fractions; experiment: Phenotype of CD40L-FasL-IgFc activated cells; assay type: cell-based, human; conditions: cultures stimulated for 5 days
[13] = tested on: human PBMCs; experiment: Proliferation of human PBMC ([3H]thymidine uptake); assay type: cell-based
Procedure: as §1
We cultured human PBMCs and mouse spleen cells in the presence of CD40L-FasL-IgFc. Whole blood, obtained from a healthy donor, was twice diluted with Na-PBS (pH 7.2) and peripheral blood mononuclear cells (PBMCs) were separated by Ficoll density gradients (Ficoll-Paque Plus, Amarsham Biotech) by centrifugation (Sorvall RT 6000, 1500 rpm for 15 minutes at room temperature). The peripheral blood mononuclear cells were collected from the interphase between the PBS top layer and Ficoll plus bottom layer, washed with PBS and subjected to cell proliferation assays. […]

Substance: B7-2-FasL-IgFc: fusion protein of human B7-2 extracellular domain, FasL extracellular domain and IgG1 Fc (SEQ ID NO: 17)
- humoral and cellular immune responses in vivo [1]: severe repression of humoral and cellular immune responses
- HA-specific IgG, secondary response following boost [1]: far lower
- HA-specific IgG, primary response [1]: repressed the antibody response
- HA-specific CD8+ T cell response [2]: undetectable
- HA-specific response by total T cells [2]: suppressed the HA-specific response by total T cells
- T cell proliferation (mitogenic response) ([3]; 72 hours culture): strong activation of proliferation; also recorded: strong T cell-specific mitogenic response; also recorded: proliferation of both CD4^+ and CD8^+ T cells increased
- magnitude of T cell proliferation compared with phytohemagglutinin (PHA) ([3]; 72 hours culture): comparable to that induced by the well-known T cell mitogen PHA; also recorded: comparable to phytohemagglutinin-induced T cell mitogenesis
- dose required by CD8+ T cells to achieve similar levels of proliferation to CD4+ T cells ([3]; CD8+ versus CD4+ T cells): > 20 fold
- T-bet transcription factor RNA ([4]; CD4+ T cells, 0.1 μM): significant increase
- differentiation of CD4+ T cells in vitro ([4]; from T-bet/GATA3 RT-PCR): skewing towards Th1 subsets
- IL-2 secretion by T cells [5]: secretion of IL-2
- induction of cell death [6]: did not induce cell death

Substance: CD40L-FasL-IgFc: fusion protein of human CD40L extracellular domain, human FasL extracellular domain and human IgG1 Fc (SEQ ID NO: 13)
- HA-specific IgG, secondary response following boost [1]: far greater
- HA-specific IgG, primary response [1]: significantly increased the antibody response
- cell subset specificity of activation (T versus non-T/B cells) [7]: did not activate T lymphocytes but resulted in a strong mitogenic activity against B cells; also recorded: specific for the non-T cell subsets
- HA-specific CD8+ T cell response [2]: only detectable in spleen cells immunized with CD40L-FasL-IgFc
- HA-specific response by total T cells [2]: lowered the HA-specific response by total T cells
- cell death of B lymphoma cells [8]: did not undergo cell death
- expression of PRDI-BF1 RNA [9]: increased expression
- anti-TNP IgG secretion [10]: significantly increased
- OVA-specific IgG, primary response ([11]; 0.2 μg OVA + 5 μg fusion protein i.p., day 14 sera): high titers
- OVA-specific IgG after boost ([11]; boost 0.2 μg OVA on day 14, day 21 sera): increased markedly
- increase of B cell (CD19+) fraction [12]: 30%
- increase of monocyte (CD14+) fraction [12]: 15%
- cell activation / mitogenic response (proliferation) of PBMC ([13]; 3 days stimulation, 3H-thymidine, active even at 0.1-0.01 μg/ml): significant cell activation; also recorded: greatly exceeded the mitogenic response induced by the co-stimulation with CD40L-IgFc and FasL-IgFc
- mitogenic activity after adsorption with Polymixin B ([13]; fusion protein pre-absorbed with Polymixin B-coated beads, 3 days): did not attenuate the mitogenic activity
